These results are taken from patent US11241430B2, “Solid forms of 2-(tert-butylamino)-4-((1R,3R,4R)-3-hydroxy-4-methylcyclohexylamino)-pyrimidine-5-carboxamide, compositions thereof and methods of their use” (Signal Pharmaceuticals, LLC, priority 2014, dated 2022).

Values after ≈ are worked out from the molar mass of the structure shown.

Series [1] can be described thus: Compression test of Form A. The class given is physicochemical. Particulars: 2000-psi pressure for about 1 minute. An excerpt:
The stability of Form A was further characterized by compression test and form transfer experiments.

A short description of series [2]: physchem. Particulars: 25 °C, thermodynamic from solid.
Series [3] is described as follows: Moisture sorption/desorption (hygroscopicity) by DVS. The class given is physicochemical. The protocol:
Hygroscopicity was determined on a Surface Measurement Systems DVS. Typically a sample size of 5-20 mg was loaded into the DVS instrument sample pan and the sample was analyzed on a DVS automated sorption analyzer at room temperature. The relative humidity was increased from 0% to 90% RH at 10% RH step, then at 95% RH. The relative humidity was then decreased in a similar manner to accomplish a full adsorption/desorption cycle.
The moisture sorption/desorption behavior of Form A was determined by DVS.

The nature of series [4]: Slurry experiments of Form H in water/DMSO (form map).
Procedure: The effect of temperature (22° C.-70° C.) and water compositions in DMSO (50%-88%) on the stability of Form A and Form H of Compound 1 is mapped out in Table 6 and FIG. 45.
Series [5] is described as follows: Water uptake on storage. The class given is physicochemical.
Series [6] is described as follows: Form conversion experiments: slurry in water. Particulars: RT, 5 days. Type of series: physicochemical. The protocol: (§1) Further form conversion experiments were performed to determine interconversion among solid forms. The solvated forms were isothermally held at 150° C. for 5 min and the resulted solids were consistent with Form A. All aqueous slurries also afforded Form A.

A short description of series [7]: Form conversion experiments: heating of solvated forms. The class given is physicochemical. The protocol: as §1

As for `C[C@@H]1CC[C@@H](Nc2nc(NC(C)(C)C)ncc2C(N)=O)C[C@H]1O` [Form A, 2-(tert-butylamino)-4-((1R,3R,4R)-3-hydroxy-4-methylcyclohexylamino)-pyrimidine-5-carboxamide], the “solid form after compression (XRPD)” value in series [1] is reported as “still Form A”. In addition, the solubility at 24 h in series [2] (pH 4.5, aqueous buffer) was determined as 0.289 mg/mL (≈ 899 µM); in series [2], 0.038 mg/mL (≈ 118 µM). The “XRPD diffractogram after adsorption/desorption cycles” value in series [3] (after DVS cycle 0-95% RH) was “no change”. Also, the results for the DVS water uptake in series [3] (at 80% RH (Table 5)) and in series [3] (from 0 to 95% RH (Table 5)) were 1.0 wt % at and 1.2 wt % water, respectively. In series [3] (between 0 and 10% RH, room temperature), the “steep mass change (DVS)” value amounted to 1.3%. Besides, the “total mass change (DVS)” value in series [3] (between 0 and 95% RH, room temperature) came out at 2.3%. Moreover, in series [4] (22° C., 70-88% water in DMSO), the “form stability in water/DMSO” value is reported as “remained as Form A”. Further, the “thermodynamic stability in water/DMSO” value in series [4] (water rich water/DMSO mixture (>70%), 22° C.-70° C.) was “thermodynamically stable form”. Moreover, the “water uptake at room temperature” value in series [5] (room temperature) is given as “relatively slow water uptake”. For the same compound, the “water absorbed after storage” value in series [5] (storage at 40° C./75% RH for 7 months) was “up to 3%”.

For `C[C@@H]1CC[C@@H](Nc2nc(NC(C)(C)C)ncc2C(N)=O)C[C@H]1O` [Form B, 2-(tert-butylamino)-4-((1R,3R,4R)-3-hydroxy-4-methylcyclohexylamino)-pyrimidine-5-carboxamide], the “XRPD Result (solid form after slurry in water)” value in series [6] is recorded as “Form A”. Also, the “solid form after heating above the desolvation temperature” value in series [7] (form transfer experiment, heating above the desolvation temperature) is “Form A”.

Take `C[C@@H]1CC[C@@H](Nc2nc(NC(C)(C)C)ncc2C(N)=O)C[C@H]1O` [Form D, 2-(tert-butylamino)-4-((1R,3R,4R)-3-hydroxy-4-methylcyclohexylamino)-pyrimidine-5-carboxamide]: the “XRPD Result (solid form after heating)” value in series [7] (Heating, isothermal hold at 150° C. for 5 min) is on record as “Form A”.

Regarding `C[C@@H]1CC[C@@H](Nc2nc(NC(C)(C)C)ncc2C(N)=O)C[C@H]1O` [Form H, 2-(tert-butylamino)-4-((1R,3R,4R)-3-hydroxy-4-methylcyclohexylamino)-pyrimidine-5-carboxamide], the “Stable Polymorph Form after slurry of Form H” value in series [4] (50% water in DMSO, 22° C.) is on record as “A/H”; in series [4] (60% water in DMSO, 40° C.), “A/H”.
